# Test results as given in patent US5798381A, “Biologically active bistramides, process for their production and their applications in therapy” (Institut Francais de Recherche Scientifique pour le …, priority 1993, dated 1998).
# Entries after “also recorded” stand apart in the source; their conditions may differ. Like-named read-outs stand apart in the source and are kept apart here.
# How the values were obtained:
# mice = experiment: Acute toxicity (LD50), intravenous injection in mice; type: in vivo; conditions: statement in words
# Method: The LD50 of these bistramides is in fact of the order of 1.7 mg/kg (measured in mice, after injection of the product by intravenous route as a single dose).
# The "LD50 " of the products of the invention has been measured for mice after injection of the products by intravenous route.
# [1] = test system: NSCLC solid tumours (xenograft); type: in vivo, nude mouse
# Method: The anti-tumoural activity of the products of the invention was studied against solid tumours of NSCLC type grafted onto a nude mouse (D. Riou, C. Roussakis, J. F. Biard, J. F. Verbist: "Comparative study of antitumor activity of bistramides A, D and K against non-small cell bronchopulmonary carcinoma", Anticancer Research, 1993, 13, 2321-2334). Each mouse received 0.2 ml of a cell solution obtained by the mechanical dispersion of about 1 g of excised mouse tumour in 4.8 ml of a sterile saline solution. The sub-cutaneous grafted tumours were measured over their long length L and their short length 1. The tumoural volume was evaluated according to the formula Vt=L×1^2 /2. The tumoural growth on day d was calculated by the formula Vtd /Vtd0 for each mouse, Vtd0 being the tumoural volume at the start of treatment.
# The curve "------.circle-solid.------ " relates to the control experiment, the curves "--- .diamond-solid.---", "-- .quadrature.--" and "-- .box-solid.--" to experiments with 10, 20 and 5 mg/kg of bistramide D respectively and the curve "----*----" to an experiment with 10 mg/kg of bistramide K. Each point represents the average tumoural growth for 6 mice.
# In these experiments, bistramide K is injected at the rate of 10 mg/kg by intraperitoneal route for 16 days and bistramide D at the rate of 5 mg/kg by intraperitoneal route every day for 16 days; at 10 mg/kg by intravenous route on days 1, 5, 9, 14, and at 20 mg/kg by intravenous route on days 1, 5, 9, 14.
# KB = experiment: Cytotoxicity, 50% inhibition of cell growth, KB; type: cell-based; conditions: Homo sapiens, read-out: IC50 (50% inhibition of cell growth)
# Method: (§1) The cytoxicity results are recorded hereafter as the IC50 in μg/ml (concentration corresponding to a 50% inhibition of cell growth) on 6 tumoural lines namely KB, P388, P388/dox (resistant to doxorubicin), B16 and H429 and NSCLC-N6, which are human cells of non-small cell bronchopulmonary carcinoma type.
# (§2) The determinations were carried out according to the protocol given in Cancer Chemother. Pharmacol. (1991) 28:283-292 by Roussakis et al.
# P388 (p388s) = experiment: Cytotoxicity, 50% inhibition of cell growth, P388; type: cell-based; conditions: Mus musculus, P388/S, read-out: IC50 (50% inhibition of cell growth)
# Method: as §1, §2
# P388/dox (p388r) = experiment: Cytotoxicity, 50% inhibition of cell growth, P388/dox (resistant to doxorubicin); type: cell-based; conditions: Mus musculus
# Method: as §1, §2
# B16 = experiment: Cytotoxicity, 50% inhibition of cell growth, B16; type: cell-based
# Method: as §1, §2
# HT 29 = experiment: Cytotoxicity, 50% inhibition of cell growth, HT 29; type: cell-based; conditions: Homo sapiens
# Method: as §1, §2
# NSCLC.N6-L16 = experiment: Cytotoxicity, 50% inhibition of cell growth, NSCLC-N6; type: cell-based; conditions: Homo sapiens
# Method: as §1, §2
structure (smiles),measurement,setting,value
C/C=C/C(=O)CC1CCC(C)C(CC(=O)NCC(O)C(C)C(=O)NCCCC2OC3(CCCC(CCC(C)/C=C(\C)C(C)O)O3)CCC2C)O1 (stereo not drawn) [Bistramide A],toxicity in vivo,mice,high toxicity; also recorded: toxic
same,toxicity in vivo,mice; listed as A bistramide,acute toxicity
same,toxicity under the conditions of the xenograft test,"[1]; mouse, in vivo",too toxic for an anti-tumoural effect to be observed
CCCC(=O)CC1CCC(C)C(CC(=O)NCC(O)C(C)C(=O)NCCCC2OC3(CCCC(CCC(C)C=C(C)C(C)O)O3)CCC2C)O1 (stereo not drawn) [Bistramide B],toxicity in vivo,mice,high toxicity
C/C=C/C(=O)CC1CCC(C)C(CC(=O)NCC(O)C(C)C(=O)NCCCC2OC3(CCCC(CCC(C)C=C(C)C(C)=O)O3)CCC2C)O1 (stereo not drawn) [Bistramide C],toxicity in vivo,mice,high toxicity
C/C=C/C(O)C/C=C/CC(C)C(O)CC(=O)NCC(O)C(C)C(=O)NCCCC1OC2(CCCC(CCC(C)/C=C(\C)C(C)O)O2)CCC1C (stereo not drawn) [Bistramide K],IC50,KB,> 10 µg/mL
same,IC50,P388 (p388s); p388s,0.57 µg/mL
same,IC50,P388/dox (p388r),> 10 µg/mL
same,IC50,"B16; Mus musculus, B16; read-out: IC50 (50% inhibition of cell growth)",1.9 µg/mL
same,IC50,"HT 29; HT 29, read-out: IC50 (50% inhibition of cell growth)",5.6 µg/mL
same,IC50,"NSCLC.N6-L16; NSCLC.N6-L16, read-out: IC50 (50% inhibition of cell growth)",3.23 µg/mL
same,tumoural growth relative to controls (100%),"[1]; 10 mg/kg, IP, for 16 days, at the end of 30 days",49%
C/C=C\C(=O)CC1CCC(C)C(CC(=O)NCC(O)C(C)C(=O)NCCCC2OC3(CCCC(CCC(C)/C=C(\C)C(C)O)O3)CCC2C)O1 (stereo not drawn) [Bistramide L],IC50,KB,0.72 µg/mL
same,IC50,P388 (p388s),0.48 µg/mL
same,IC50,P388/dox (p388r),0.12 µg/mL
same,IC50,"B16; Mus musculus, B16, read-out: IC50 (50% inhibition of cell growth)",2.4 µg/mL
same,IC50,"HT 29; HT-29, read-out: IC50 (50% inhibition of cell growth)",0.29 µg/mL
same,IC50,"NSCLC.N6-L16; NSCLC-N6, read-out: IC50 (50% inhibition of cell growth)",0.12 µg/mL
